Experimental data taken from patent EP4813403A1, “USE OF GLP-1R/GIPR DOUBLE-TARGET AGONIST IN PREPARING ANIMAL DRUG” (Hangzhou Zhongmeihuadong Pharmaceutical Co., Ltd., priority 2023, dated 2025).

What was measured:
[1] = Repeated administration on male rats for 2 weeks (toxicity, toxicokinetics); type: in vivo, SD male rats
Procedure: 77 SD male rats (SPF grade) were selected and randomly divided into 10 groups based on body weight. Group 1 was the vehicle control group, including 5 animals. […] Group 5 to Group 7 were the groups administrated with the test substance 1; and Group 8 to Group 10 were the groups administrated with the test substance 2, each group including 8 animals, wherein 5 animals for primary test, and 3 animals for toxicokinetics test, and the administration dose was 1, 3 and 10 mg/kg respectively. Each of the above groups was continuously administered twice a week for 2 weeks (administrating at Day 1, Day 5, Day 8, Day 12 and Day 15).
During the experiment, the cage condition monitoring, detailed clinical observations, determination of the food consumption, determination of body weight, measurement of the blood biochemical and hematology indicator, investigation of the gross anatomy, weighing of the organ, studying on toxicokinetic were performed on all the groups of the animals.
Original data during each time period was tabulated. The average values and standard deviations and/or group change were calculated for each assay endpoint based on the group and sex. For each endpoint, the administrated group will be compared with the control group in the following aspect. A logarithmic conversion was performed to the endpoint data as desired prior to the start of the specific analyses.

[2] = Pharmacokinetics in C57 mice; conditions: C57, mouse, in vivo
Procedure: After subcutaneous or intravenous administration to C57 mice, plasma was collected and the drug concentration in plasma was determined to illustrate the in vivo pharmacokinetic properties of the compound according to the present invention. […] 20.0 µL of thawed plasma sample was taken. 20 µL of 50% aqueous methanol solution (containing 100 ng mL^-1 Tolbutamide) and 60 µL of acetonitrile were added sequentially to precipitate protein. The mixture was vortexed for 5 minutes, and centrifuged at 4815 rpm for 8 minutes. 50.0 µL of the supernatant was taken, into which 50.0 µL of 0.5% aqueous formic acid solution was added. The mixture was vortexed for 5 minutes. 50 µL of the mixture solution was sampled and injected into the LC-MS/MS to determine the drug concentration in plasma. Based on the drug concentration in plasma of the compounds in C57 mice, the pharmacokinetic parameters were calculated by applying the software Winnolin 8.3 in a non-compartmental model, and the results were shown in Table 7 and Table 8 below. Table 7 Average Pharmacokinetic Parameters after Single Subcutaneous Administration to Mice

[3] = in vivo

CC[C@H](C)[C@H](NC(=O)[C@H](CC(C)C)NC(=O)[C@H](Cc1c[nH]c2ccccc12)NC(=O)[C@H](CCC(N)=O)NC(=O)[C@@H](NC(=O)[C@H](Cc1ccccc1)NC(=O)[C@H](C)NC(=O)[C@H](CCCCNC(=O)COCCOCCNC(=O)COCCOCCNC(=O)CC[C@H](NC(=O)CCCCCCCCCCCCCCCCCCC(=O)O)C(=O)O)NC(=O)[C@H](CCC(N)=O)NC(=O)[C@H](C)NC(=O)[C@@H](NC(=O)[C@H](CCCCN)NC(=O)[C@H](CC(=O)O)NC(=O)[C@H](CC(C)C)NC(=O)C(C)(C)NC(=O)[C@@H](NC(=O)[C@H](CO)NC(=O)[C@H](Cc1ccc(O)cc1)NC(=O)[C@H](CC(=O)O)NC(=O)[C@H](CO)NC(=O)[C@@H](NC(=O)[C@H](Cc1ccccc1)NC(=O)[C@@H](NC(=O)CNC(=O)[C@H](CCC(=O)O)NC(=O)C(C)(C)NC(=O)[C@@H](N)Cc1ccc(O)cc1)[C@@H](C)O)[C@@H](C)O)[C@@H](C)CC)[C@@H](C)CC)C(C)C)C(=O)N[C@@H](C)C(=O)NCC(=O)NCC(=O)N1CCC[C@H]1C(=O)N[C@@H](CO)C(=O)N[C@@H](CO)C(=O)NCC(=O)N[C@@H](C)C(=O)N1CCC[C@H]1C(=O)N1CCC[C@H]1C(=O)N1CCC[C@H]1C(=O)N[C@@H](CO)C(N)=O [Tirzepatide, reference compound]
MTD ([1]; MTD for 2 weeks, rats): 2077 nmol/kg (MTD for 2 weeks) | dose at which decrease of the body weight was observed after the first administration ([1]; SD male rats): ≥ 3 mg/kg | Gross Anatomy ([1]; SD male rats, 1, 3, 10 mg/kg twice a week for 2 weeks): no abnormalities were found | accumulation (toxicokinetic) ([1]; SD male rats, administered twice a week for 2 weeks): no substantial accumulation | MTD at 336 h ([1]; Sprague-Dawley, rat, in vivo, SD male rats, administered twice a week for 2 weeks): ≥ 10 mg/kg | Safety Window (based on dosage) ([1]; rat 2-week MTD versus efficacy dose): 416 | MRT ([2]; iv, MRT(0-t)): 11.4 h | MRT ([2]; iv, MRT(0-∞)): 12 h | MRT ([2]; sc, MRT(0-t)): 14.5 h | MRT ([2]; sc, MRT(0-∞)): 15.3 h | heart rate recovery time [3]: > 120 h
